Source: patent US7358376B2, “Substituted Thiophene compounds” (AstraZeneca AB, priority 2000, dated 2008)

`NC(=O)Nc1cc(-c2ccccc2Cl)sc1C(N)=O` [Example 7, 3-[(Aminocarbonyl)amino]5-(2-chlorophenyl)-2-thiophenecarboxamide] showed a melting point greater than 300 °C. For `CN(C)CCOc1ccccc1-c1cc(NC(N)=O)c(C(N)=O)s1` [Example 9, 3-[(Aminocarbonyl)amino]-5-{2-[2-(dimethylamino)ethoxy]phenyl}-2-thiophenecarboxamide], the melting point was 180 °C. Molecule `CN(C)CCOc1ccc(-c2cc(NC(N)=O)c(C(N)=O)s2)cc1` [Example 10, 3-[(Aminocarbonyl)amino]-5-{4-[2-(dimethylamino)ethoxy]phenyl}-2-thiophenecarboxamide] has a melting point greater than 300 °C. `COc1ccc(-c2cc(NC(N)=O)c(C(N)=O)s2)cc1` [Example 4, 3-[(Aminocarbonyl)amino]-5-(4-methoxyphenyl)-2-thiophenecarboxamide] gave a melting point greater than 300 °C.
